# Results from paper PMC11696576, “Next generation thiazolyl ketone inhibitors of cytosolic phospholipase A2 α for targeted cancer therapy” (Nature Communications, 2025).
# Values joined by “and” are separate entries in the source; they are usually repeats but may differ in a detail not shown here. Equal values may be shown once.
# Experiments:
# recombinant human cPLA2α = biological target: T1, recombinant human cPLA2α (Homo sapiens, UniProt P47712); parameters: method as in PMID 25152071; conditions: previously published data ref 19, cited from earlier work
# T1 sequence (P47712 1-749): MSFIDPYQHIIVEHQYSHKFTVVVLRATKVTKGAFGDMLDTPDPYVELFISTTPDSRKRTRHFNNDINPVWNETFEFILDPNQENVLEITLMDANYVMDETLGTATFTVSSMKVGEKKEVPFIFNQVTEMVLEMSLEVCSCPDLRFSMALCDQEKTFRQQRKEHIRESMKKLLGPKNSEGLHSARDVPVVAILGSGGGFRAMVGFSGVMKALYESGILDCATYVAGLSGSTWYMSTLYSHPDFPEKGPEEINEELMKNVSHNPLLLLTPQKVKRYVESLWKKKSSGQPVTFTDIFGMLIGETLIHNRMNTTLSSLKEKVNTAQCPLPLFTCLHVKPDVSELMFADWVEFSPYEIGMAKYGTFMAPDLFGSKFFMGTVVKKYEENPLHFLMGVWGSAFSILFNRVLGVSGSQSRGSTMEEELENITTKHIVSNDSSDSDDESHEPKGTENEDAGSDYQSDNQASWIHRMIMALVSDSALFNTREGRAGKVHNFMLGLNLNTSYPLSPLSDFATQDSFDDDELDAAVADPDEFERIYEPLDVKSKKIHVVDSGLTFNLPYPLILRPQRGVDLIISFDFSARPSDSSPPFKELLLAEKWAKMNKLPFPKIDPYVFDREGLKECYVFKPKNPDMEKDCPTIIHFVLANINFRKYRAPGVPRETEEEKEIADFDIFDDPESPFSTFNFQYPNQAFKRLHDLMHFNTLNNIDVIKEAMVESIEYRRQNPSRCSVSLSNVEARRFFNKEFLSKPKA
# PBMCs = test: viability of PBMCs (CTG and propidium iodide exclusion); assay type: cell-based, human; conditions: for PI Negative (Figure S8b) / PI Positive (Figure S8b): replicates; for PI Negative (Figure S8b) / PI Positive (Figure S8b) / PBMC viability relative to 0 µM = 100 (Figure S8a): listed as AVX420
# Procedure: (§1) Propidium iodide exclusion was used to assess cell death by flow cytometry. After treatment, the cells were washed once with PBS and stained with 1.4 μg/mL propidium iodide (PI) for 5 min before quantification of PI negative and positive cells using a CytoFLEX flow cytometer (California, United States). An example of the gating strategy to assess PI staining can be found in Fig. S8c. […]
# (§2) cells. a. CTG assays were used to assess viability of PBMCs isolated from human blood after treatment with vehicle control (DMSO) or AVX420 at the indicated doses for either (i) 24 hours or (ii) 72 hours. Data are the mean ±stdev of 4 or 5 biological replicates respectively. b. The propidium iodide exclusion assay was used to assess vi-ability of ungated PBMCs treated with AVX420 at the indicated doses for 24 hours .
# (§3) Data are the mean ±stdev from 8 biological replicates (1-16 µM) and 5 biological rep- […]
# (§4) iodide exclusion in CD3+ lymphocytes (T-cells). Cells appearing in the bottom right quadrant are PI-negative (live) T-cells while cells in the top right quadrant are PI-posi- […]
# (§5) (1 picture or pasted object on this page, not shown here)
# [1] = as above; assay type: cell-based, human; conditions: human, read-out: PBMC viability relative to 0 µM = 100 (Figure S8a)
# Procedure: as §1, §2, §3, §4, §5
smiles,measurement,setting,value
CCCCCCCCc1ccc(OCC(=O)c2nc(C(=O)OC)cs2)cc1 [GK470],cPLA2α % Inhib,recombinant human cPLA2α; 0.091 mole fraction,>90%
same,cPLA2α XI(50),recombinant human cPLA2α; XI(50) ± stdev,0.011 ± 0.005 mole fraction
CCCCCCCOc1ccc(OCC(=O)c2nc(C(=O)OC)cs2)cc1 [GK420],PI Negative (Figure S8b),PBMCs; 0.5 µM,87 (3×) and 88 and 86 (2×) and 81 and 79
same,PI Positive (Figure S8b),PBMCs; 0.5 µM,12 and 14 (2×) and 13 (3×) and 19 and 21
same,PI Negative (Figure S8b),PBMCs; 1 µM,86 (3×) and 88 and 87 (2×) and 81 and 79
same,PI Positive (Figure S8b),PBMCs; 1 µM,12 and 14 (3×) and 13 (2×) and 19 and 21
same,PI Negative (Figure S8b),PBMCs; 2 µM,86 (3×) and 88 and 85 and 81 and 79 and 87
same,PI Positive (Figure S8b),PBMCs; 2 µM,12 and 15 and 14 (3×) and 19 and 21 and 13
same,PI Negative (Figure S8b),PBMCs; 4 µM,87 (2×) and 88 and 85 and 86 and 80 and 79 and 84
same,PI Positive (Figure S8b),PBMCs; 4 µM,12 and 15 and 14 and 20 and 21 and 13 (2×) and 16
same,PI Negative (Figure S8b),PBMCs; 8 µM,86 and 88 and 84 (2×) and 80 and 77 and 85 and 83
same,PI Positive (Figure S8b),PBMCs; 8 µM,12 and 16 (2×) and 20 and 23 and 15 and 17 and 14
same,PI Negative (Figure S8b),PBMCs; 16 µM,86 and 88 and 84 (3×) and 80 and 74 and 81
same,PI Positive (Figure S8b),PBMCs; 16 µM,12 and 16 (3×) and 20 and 26 and 19 and 14
same,PI Negative (Figure S8b),PBMCs; 32 µM,82 and 84 and 79 and 81 and 80
same,PI Positive (Figure S8b),PBMCs; 32 µM,16 and 21 and 19 and 20 and 18
same,PBMC viability relative to 0 µM = 100 (Figure S8a),"PBMCs; PBMC 72H, 0.5 µM, rep1-5",100 and 93 (2×) and 120
same,PBMC viability relative to 0 µM = 100 (Figure S8a),"PBMCs; PBMC 72H, 1 µM, rep1-5",91 and 93 and 110 and 97
same,PBMC viability relative to 0 µM = 100 (Figure S8a),"PBMCs; PBMC 72H, 4 µM, rep1-5",111 and 89 and 93 and 118 and 88
same,PBMC viability relative to 0 µM = 100 (Figure S8a),"PBMCs; PBMC 72H, 8 µM, rep1-5",113 and 75 and 87 and 109 and 93
same,PBMC viability relative to 0 µM = 100 (Figure S8a),"PBMCs; PBMC 72H, 16 µM, rep1-5",109 and 80 and 83 and 90
same,PBMC viability relative to 0 µM = 100 (Figure S8a),"PBMCs; PBMC 72H, 32 µM, rep1-5",104 and 88 and 82 and 76 and 96
same,PBMC viability relative to 0 µM = 100 (Figure S8a),"PBMCs; PMBC 24H, 0.5 µM, rep1-4",100 and 97 (2×)
same,PBMC viability relative to 0 µM = 100 (Figure S8a),"PBMCs; PMBC 24H, 1 µM, rep1-4",94 and 95
same,PBMC viability relative to 0 µM = 100 (Figure S8a),"PBMCs; PMBC 24H, 2 µM, rep1-4",97
same,PBMC viability relative to 0 µM = 100 (Figure S8a),"PBMCs; PMBC 24H, 4 µM, rep1-4",97 and 96
same,PBMC viability relative to 0 µM = 100 (Figure S8a),"PBMCs; PMBC 24H, 8 µM, rep1-4",105
same,PBMC viability relative to 0 µM = 100 (Figure S8a),"PBMCs; PMBC 24H, 32 µM, rep1-4",104
same,effect on healthy PBMCs,PBMCs; up to a maximum dose tested of 32 µM,no effect
same,"viability at 72 h, 1 µM","[1]; PBMC 72H, 1 µM, rep1-5",103%
same,"viability at 24 h, 0.5 µM","[1]; PMBC 24H, 0.5 µM, rep1-4",99%
same,"viability at 24 h, 1 µM","[1]; PMBC 24H, 1 µM, rep1-4",102%
same,"viability at 24 h, 2 µM","[1]; PMBC 24H, 2 µM, rep1-4",98%
same,"viability at 24 h, 4 µM","[1]; PMBC 24H, 4 µM, rep1-4",101%
same,"viability at 24 h, 8 µM","[1]; PMBC 24H, 8 µM, rep1-4",102%
same,"viability at 24 h, 16 µM","[1]; PMBC 24H, 16 µM, rep1-4",102%
same,"viability at 24 h, 32 µM","[1]; PMBC 24H, 32 µM, rep1-4",101%
